Assays:
[1] = test system: HER2-positive human ovarian cancer cell lines SKOV3; test: SKOV3 ovarian cancer subcutaneous tumor, Herceptin and compound c (Experimental Example 18); format: in vivo, BALB/c-nude mice; details: Herceptin 5 mg/kg i.p. once + compound c 10 mg/kg/day oral (day 0-4, day 7-11); 45 days after administration
Protocol: HER2-positive human ovarian cancer cell lines SKOV3 (5×10^6) were subcutaneously inoculated into BALB/c-nude mice. For better cell engraftment, the mice were intraperitoneally administered 25 μl of anti-Asialo GM1 antibody (Wako Pure Chemical Industries, Ltd., Code No. 014-09801) 2 days and 1 day before the cancer cell inoculation. […] The group to which Herceptin and compound c were administered in combination is referred to as “compound c-combined group”, and the group to which Herceptin and physiological saline were administered in combination is referred to as “compound c-non-combined group.” The group to which only physiological saline was administered without Herceptin is referred to as “placebo group.”

hematopoietic stem cells [2] = test: Hematopoietic recovery after bone-marrow transplantation, compounds a, b, c (Experimental Example 5); format: in vivo, mice; details: for frequency of hematopoietic stem cells / self-renewal capacity of hematopoietic stem cells: compound a 100 mg/kg oral 4 days, compounds b and c 10 mg/kg oral 6 consecutive days after bone-marrow transplantation
Protocol: The procedures of Experimental Examples 4 (1) and 4 (4) were repeated using compounds b and c, instead of compound a, as a test compound.
Compound a was orally administered in an amount of 100 mg/kg for 4 consecutive days after bone-marrow transplantation. Compounds b and c were orally administered in an amount of 10 mg/kg for 6 consecutive days after bone-marrow transplantation.
Bone marrow was collected 1 and 3 weeks after bone-marrow transplantation. The total number of the whole bone-marrow cells (FIG. 9E), the proportion (%) of LSK-CD34 negative cells in the whole bone marrow (FIG. 9A), the total number of LSK-CD34 negative cells in the whole bone marrow (FIG. 9B), the proportion (%) of Lin-SLAM cells in the whole bone marrow (FIG. 9C), and the total number of Lin-SLAM cells in the whole bone marrow (FIG. 9D) were measured. The results are shown in the above-stated figures.

[3] = test system: long-term hematopoietic stem cells; test: Long-term hematopoietic stem cells: 15 weeks after transplantation, successive transplantation, limiting dilution (Experimental Example 10); format: in vivo, mice
Protocol: 15 weeks after bone-marrow transplantation, the control group, tPA group, and compound a-administered group (12 mice for each group) were measured for the number of bone-marrow mononucleic cells (BM MNC), frequency and absolute number of Lin-SLAM cells, and frequency of and absolute number LSK-CD34 negative cells.
15 weeks after the initial bone-marrow transplantation, bone marrow was collected from mice of the control group, tPA group, and compound a-administered group, and the collected bone marrow was transplanted into other mice (successive transplantation). In the successive transplantation, none of physiological saline, tPA, or compound a was administered.
12 weeks after successive transplantation, the chimerism of donor-derived bone marrow hematopoietic cells was measured.
To compare the frequency of long-term hematopoietic stem cell, donor-derived bone marrow to be transplanted first was diluted and transplanted, and the effect of PAI-1 inhibition was evaluated by a limiting dilution technique.
The collected bone-marrow mononucleic cells were diluted such that Ly5.1 positive bone-marrow mononucleic cell count gave 2×10E3, 6×10E3, 2×10E4, and 6×10E4, and then Ly5.1 positive bone-marrow mononucleic cells of each count were transplanted, together with 5×10E5 Ly5.2 positive competitor cells, into 20 mice. For transplantation, mice were divided into 2 groups, i.e., a compound a-administered group to which compound a was to be administered and a control group to which physiological saline was to be administered (8 groups in total), and the chimerism (the positive rate of Ly5.1 positive bone-marrow mononucleic cells) was measured 12 weeks after the transplantation.
Further, bone marrow was collected from the control groups and the compound a-administered groups to both of which Ly5.1 positive bone-marrow mononucleic cells of the above-described numbers were transplanted, and the collected bone marrow was successively transplanted into other mice. At the time successive transplantation was conducted, neither physiological saline nor the compound was administered. 12 weeks after the successive transplantation, bone marrow was collected from the mice, and Ly5.1 positive cells in the bone-marrow mononucleic cells were measured.
After successive transplantation, the frequency (CRU frequency) of hematopoietic stem cells having the hematopoietic regeneration capacity was calculated.

hematopoietic stem cells [4] = test: Hematopoietic recovery after total-body radiation (9Gy) and bone-marrow transplantation (Experimental Example 4); format: in vivo, C57BI6/J mice
Protocol: Specifically, C57BI6/J mice (recipient), which were wild-type inbred strain mice, were treated with total-body radiation (9Gy), and four hours later, bone-marrow cells were transplanted into the mice. Concurrently with the transplantation, compound a was administered to the mice as a test compound via oral gavage (dosage 100 mg/kg), and compound a was daily administered orally for 5 consecutive days (administered group).
The survival rate of the mice after bone-marrow transplantation was tracked over time (each group: n=15).
Bone-marrow cells collected from the mice (administered group and control group) 7 days after bone-marrow transplantation were measured for the presence of Lin-SLAM cells with a flow cytometric analyzer (see FIG. 5A). Each test was independently conducted (each group: n=6).
The proportion (%) of Lin-SLAM cells in the whole bone marrow, the total number of Lin-SLAM cells in the bone marrow, the proportion (%) of LSK-CD34 negative cells in the bone marrow, and the total number of LSK-CD34 negative cells in the bone marrow were measured.
The bone-marrow cells collected from the mice (administered group, control group) 7 days after bone-marrow transplantation were measured for the plasminogen (Plg) mRNA expression level, tPA mRNA expression level, and PAI-1 mRNA expression level.
Bone marrow was collected from the mice (administered group and control group) 13 weeks after bone-marrow transplantation, and the following was measured: the total number of whole bone marrow (FIG. 7A), the proportion (%) of LSK-CD34 negative cells in the whole bone marrow (FIG. 7B), the total number of CD34(−)KSL cells in the whole bone marrow (FIG. 7C), the proportion (%) of Lin-SLAM cells in the whole bone marrow (FIG. 7D), the total number of Lin-SLAM cells in the whole bone marrow (FIG. 7E), the proportion (%) of bone marrow differentiated cells (CD45.1/Mac1/Gr1 cell) in the whole bone marrow (FIG. 7F), the total number of bone marrow differentiated cells (CD45.1/Mac1/Gr1 cell) in the whole bone marrow (FIG. 7G), the proportion (%) of B-cell lymphoid differentiated cells (CD45.1/B 220 cell) in the whole bone marrow (FIG. 7H), and the total number of B cell lymphoid differentiated cells (CD45.1/B 220 cell) in the whole bone marrow (FIG. 7I). The results are shown in the above-stated figures.

[5] = compound a 100 mg/kg oral, 4 consecutive days, 1 and 3 weeks after bone-marrow transplantation, versus vehicle
[6] = 100 mg/kg oral gavage, 5 consecutive days, days 2, 7, 21 after bone-marrow transplantation, versus vehicle control
[7] = 100 mg/kg oral, 7 days after bone-marrow transplantation

Row | Structure (SMILES) | tumor volume versus other groups [1] | frequency of hematopoietic stem cells (hematopoietic stem cells [2]) | self-renewal capacity of hematopoietic stem cells (hematopoietic stem cells [2]) | chimerism of donor-derived bone marrow hematopoietic cells ([3]; 12 weeks after successive transplantation, compound given only at first transplantation) | number of bone-marrow mononucleic cells, frequency and absolute number of LSK-CD34 negative cells and of Lin-SLAM cells ([3]; 15 weeks after bone-marrow transplantation, among control, tPA and compound a groups) | frequency of hematopoietic stem cells having the hematopoietic regeneration capacity, versus control ([3]; after successive transplantation) | chimerism (positive rate of Ly5.1 positive bone-marrow mononucleic cells) ([3]; limiting dilution 2×10E3 to 6×10E4 cells, 12 weeks after transplantation) | plg level, tPA level, cKitL level, total MMP-9 level in the plasma and white blood cell count in the peripheral blood (hematopoietic stem cells [2]; [5]) | proportion and total number of LSK-CD34 negative cells and Lin-SLAM cells in the whole bone marrow (hematopoietic stem cells [2]; [5]) | cKitL level in plasma (hematopoietic stem cells [4]; [6]) | plg level in plasma (hematopoietic stem cells [4]; [6]) | tPA level in plasma (hematopoietic stem cells [4]; [6]) | total MMP-9 level in plasma (hematopoietic stem cells [4]; [6]) | white blood cell count in the peripheral blood (hematopoietic stem cells [4]; [6]) | survival rate of the mice after bone-marrow transplantation (hematopoietic stem cells [4]; 100 mg/kg oral, concurrently with transplantation and 5 consecutive days, versus control group) | whole bone marrow cell number; proportion and total number of LSK-CD34 negative cells, Lin-SLAM cells, bone marrow differentiated cells, B-cell lymphoid differentiated cells (hematopoietic stem cells [4]; 100 mg/kg oral, 13 weeks after bone-marrow transplantation, versus vehicle control) | frequency of hematopoietic stem cells (Lin-SLAM cells, LSK-CD34 negative cells in bone marrow) (hematopoietic stem cells [4]; [7]) | mRNA expression of plasminogen, tissue-type plasminogen activator, and plasminogen activator inhibitor 1 in bone marrow (hematopoietic stem cells [4]; [7])
1 | O=C(Nc1ccc(Cl)cc1C(=O)O)c1cccc(-c2ccccc2)c1 [Example 4, 2-[(biphenyl-3-ylcarbonyl)amino]-5-chlorobenzoic acid] | significantly smaller | increase | enhance |  |  |  |  |  |  |  |  |  |  |  |  |  |  | 
2 | O=C(COCC(=O)N1CCN(C(c2ccccc2)c2ccccc2)CC1)Nc1ccc(Cl)cc1C(=O)[O-].[Na+] [Example 30 (compound group 2), 2-(2-(2-(4-benzhydrylpiperazin-1-yl)-2-oxoethoxy)acetamido)-5-chlorobenzoic acid sodium salt] |  | increase | enhance | marked increase | highest values | ≥ 6 time higher | significant increases | significantly higher | significantly higher | significantly higher | significantly higher | significantly higher | significantly higher | significantly higher | significantly higher | significantly higher | increases | induces

From patent US10092537B2, “Use for PAI-1 inhibitor” (RENASCIENCE CO., LTD., priority 2013, dated 2018)
